One data set deals with Histamine H1 (Homo sapiens, UniProt P35367). The data set can be described thus: Lead Profiling Screen – Eurofins Panlabs. The format is binding. The settings on record: read-out: % inh at 10 μM.
In a further data set the target is T1, Cannabinoid CB1 (Homo sapiens, UniProt P21554).
T1 construct: Eurofins Panlabs (contract screen)
As to the kind of experiment: Lead Profiling Screen – Eurofins Panlabs. The format is binding. To be noted: read-out: % inh at 10 μM.

The next data set addresses T2, Adenosine A1 (Homo sapiens, UniProt P30542).
T2 construct: Eurofins Panlabs
The data set can be described thus: Lead Profiling Screen – Eurofins Panlabs. The format is binding. The settings on record: read-out: % inh at 10 μM.

The target of data set [1] is Serotonin (5-Hydroxytryptamine) 5-HT1A (Homo sapiens, UniProt P08908). As to the kind of experiment: Lead Profiling Screen – Eurofins Panlabs. In kind it is binding. The settings on record: read-out: % inh at 10 μM.
The next data set concerns the target T3, hKvLQT1/minK (Homo sapiens, UniProt P51787).
T3 construct: Charles River Laboratories
The data set can be described thus: Cardiac Ion Channel Panel – Charles River (QPatch HT patch clamp). The format is cell-based. As for the experimental part: (§1) page 17: Table S3. Cardiac Ion Channel Panel - Charles River Laboratories for VU6016235 Ion Channel Concentration Mean % Standard Standard n (μM) Inhibition Deviation Error hCav1.2 10 13.9 8.9 5.1 3 hCav3.2 10 6.7 2.7 1.4 4 hHCN2 10 2.6 1.9 1.1 3 hERG 10 10.9 0.9 0.4 4 hKv1.5 10 1.3 1.8 0.9 4 […] 10 4.1 5.6 2.8 4 hKv1.3 10 9 2.9 1.7 3 hNav1.5 (Tonic) 10 5.8 0.6 0.4 3 […] (Phasic) The in vitro effects of VU6016235 were evaluated at room temperature using the QPatch HT® (Sophion Bioscience A/S, Denmark), an automatic parallel patch clamp system. VU6016235 was evaluated at a concentration of 10 μM and tested in at least 3 cells (n ≥ 3). The duration of exposure to each test article concentration was at least 5 minutes. Rat Amphetamine-Induced Hyperlocomotion (AHL) Protocol Male Harlan Sprague Dawley rats with a mean body weight of 240 g (range 221-264 g) were tested in SmartFrame Open Field locomotor activity test chambers to automatically record locomotor activity. All […] for an additional 30 min with either vehicle or a dose of VU6016235 or the comparator M 4 PAM […] Next, rats were injected subcutaneously with vehicle or a dose of 0.75 mg/kg amphetamine and then monitored for an additional 60 min. Changes in locomotor activity were recorded for a total of 120 min. Locomotor data were expressed as the number of photobeam breaks/5 min intervals across the 120-min test session or as the total ambulation, calculated as sum of photobeam beam breaks from the time of amphetamine administration (60 min) until the end of the study (120 min). Time course data were analyzed by two-way ANOVA with main effects of treatment and time; changes in total ambulation were analyzed by one-way ANOVA followed by Dunnett's post hoc test (GraphPad Prism 7 [GraphPad Software, San Diego, CA]). For all tests, α ≤ 0.05 was considered to represent statistical significance. Finally, percent reversal data were calculated in Microsoft Excel using the following formula: Percent Reversal = 100 - {[(total ambulation in individual animal from t = 60 to t = 120) / (mean total ambulation S17

Another data set deals with T4, hCav3.2 (Homo sapiens, UniProt O95180).
T4 construct: Charles River Laboratories
Described as above. The format is cell-based. The protocol:
as §1

In another data set the target is T5, hHCN2 (Homo sapiens, UniProt Q9UL51).
T5 construct: Charles River Laboratories
T5 sequence (Q9UL51 whole entry): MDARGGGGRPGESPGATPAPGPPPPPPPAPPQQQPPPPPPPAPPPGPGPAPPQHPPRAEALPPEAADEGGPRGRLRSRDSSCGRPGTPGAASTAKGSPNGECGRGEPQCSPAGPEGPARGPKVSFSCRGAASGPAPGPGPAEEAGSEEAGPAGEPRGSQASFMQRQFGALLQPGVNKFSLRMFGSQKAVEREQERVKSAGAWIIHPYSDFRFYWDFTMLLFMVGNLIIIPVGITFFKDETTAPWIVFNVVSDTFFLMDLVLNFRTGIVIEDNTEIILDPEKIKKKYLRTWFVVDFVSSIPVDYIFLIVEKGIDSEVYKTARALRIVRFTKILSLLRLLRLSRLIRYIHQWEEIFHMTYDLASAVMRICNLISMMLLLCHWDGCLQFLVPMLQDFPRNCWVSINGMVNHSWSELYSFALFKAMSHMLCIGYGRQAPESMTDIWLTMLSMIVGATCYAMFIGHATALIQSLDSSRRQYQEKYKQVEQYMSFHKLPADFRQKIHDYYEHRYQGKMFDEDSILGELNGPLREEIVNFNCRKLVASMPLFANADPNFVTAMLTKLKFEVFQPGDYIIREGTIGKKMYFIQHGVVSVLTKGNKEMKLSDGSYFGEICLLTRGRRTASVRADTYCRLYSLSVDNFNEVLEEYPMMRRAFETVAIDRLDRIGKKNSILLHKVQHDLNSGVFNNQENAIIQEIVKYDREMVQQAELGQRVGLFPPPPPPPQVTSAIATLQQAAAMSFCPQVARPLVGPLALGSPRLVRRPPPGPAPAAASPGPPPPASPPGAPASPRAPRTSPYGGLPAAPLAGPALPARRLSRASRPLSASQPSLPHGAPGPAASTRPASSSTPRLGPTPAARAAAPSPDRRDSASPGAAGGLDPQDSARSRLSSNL
The data set is described as above. The format is cell-based. The protocol: as §1

The next data set concerns the target T6, hERG (Homo sapiens, UniProt Q12809).
T6 construct: Charles River Laboratories
The description is as above. In kind it is cell-based. As for the experimental part: as §1

The next data set has as its target T7, hKv1.5 (Homo sapiens, UniProt P22460).
T7 construct: Charles River Laboratories
The data set is described as above. In kind it is cell-based. The protocol:
as §1

For the next data set, the target named is T8, hNav1.5 (Tonic) (Homo sapiens, UniProt Q14524).
T8 construct: Charles River Laboratories
The data set is described as above. In kind it is cell-based. The protocol:
as §1

The target in the next data set is T9, hCav1.2 (Homo sapiens, UniProt Q13936).
T9 construct: Charles River Laboratories
Described as above. In kind it is cell-based. The protocol:
as §1

The target of another data set is T10, hNav1.5 (Phasic) (Homo sapiens, UniProt Q14524).
T10 construct: Charles River Laboratories
The description is as above. The format is cell-based. The protocol:
as §1

A further data set has as its target T11, hKv1.3 (Homo sapiens, UniProt P22001).
T11 construct: Charles River Laboratories
The description is as above. The format is cell-based. As for the experimental part:
as §1

Another data set has as its target T12, Dopamine D3 (Homo sapiens, UniProt P35462).
T12 construct: Eurofins Panlabs (contract screen)
The data set can be described thus: Lead Profiling Screen – Eurofins Panlabs. In kind it is binding. The settings on record: read-out: % inh at 10 μM.

Another data set addresses T13, Adrenergic α2A (Homo sapiens, UniProt P08913).
T13 construct: Eurofins Panlabs (contract screen)
As to the kind of experiment: Lead Profiling Screen – Eurofins Panlabs. In kind it is binding. The settings on record: read-out: % inh at 10 μM.

Structures are written as SMILES.

T1 sequence (P21554 whole entry): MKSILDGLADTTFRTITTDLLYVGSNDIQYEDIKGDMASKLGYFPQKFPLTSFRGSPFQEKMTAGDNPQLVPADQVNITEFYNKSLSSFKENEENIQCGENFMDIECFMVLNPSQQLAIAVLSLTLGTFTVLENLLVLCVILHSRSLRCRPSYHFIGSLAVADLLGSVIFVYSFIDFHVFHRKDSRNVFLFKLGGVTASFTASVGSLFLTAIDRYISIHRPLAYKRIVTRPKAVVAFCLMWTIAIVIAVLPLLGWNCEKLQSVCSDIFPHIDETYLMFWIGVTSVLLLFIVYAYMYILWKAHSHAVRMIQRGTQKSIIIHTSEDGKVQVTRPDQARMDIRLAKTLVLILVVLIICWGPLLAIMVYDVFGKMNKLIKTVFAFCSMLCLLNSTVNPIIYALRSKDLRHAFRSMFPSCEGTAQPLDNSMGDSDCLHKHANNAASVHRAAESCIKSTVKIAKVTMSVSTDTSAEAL
T7 sequence (P22460 whole entry): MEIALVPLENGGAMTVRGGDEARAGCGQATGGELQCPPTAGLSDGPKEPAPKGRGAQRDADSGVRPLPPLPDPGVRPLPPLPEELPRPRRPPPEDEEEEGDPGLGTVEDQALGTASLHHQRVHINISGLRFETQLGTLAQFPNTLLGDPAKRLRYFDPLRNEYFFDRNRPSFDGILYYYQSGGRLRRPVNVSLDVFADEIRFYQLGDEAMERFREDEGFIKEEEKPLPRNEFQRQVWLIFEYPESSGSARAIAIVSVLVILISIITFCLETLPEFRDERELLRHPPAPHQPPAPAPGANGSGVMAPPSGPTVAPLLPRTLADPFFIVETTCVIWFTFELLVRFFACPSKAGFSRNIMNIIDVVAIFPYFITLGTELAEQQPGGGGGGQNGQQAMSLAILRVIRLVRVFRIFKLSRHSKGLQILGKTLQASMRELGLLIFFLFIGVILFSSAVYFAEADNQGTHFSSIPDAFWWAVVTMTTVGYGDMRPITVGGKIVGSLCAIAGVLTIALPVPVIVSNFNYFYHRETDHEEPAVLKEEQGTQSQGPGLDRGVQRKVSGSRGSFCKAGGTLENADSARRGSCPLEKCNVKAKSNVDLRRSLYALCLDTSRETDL
T11 sequence (P22001 whole entry): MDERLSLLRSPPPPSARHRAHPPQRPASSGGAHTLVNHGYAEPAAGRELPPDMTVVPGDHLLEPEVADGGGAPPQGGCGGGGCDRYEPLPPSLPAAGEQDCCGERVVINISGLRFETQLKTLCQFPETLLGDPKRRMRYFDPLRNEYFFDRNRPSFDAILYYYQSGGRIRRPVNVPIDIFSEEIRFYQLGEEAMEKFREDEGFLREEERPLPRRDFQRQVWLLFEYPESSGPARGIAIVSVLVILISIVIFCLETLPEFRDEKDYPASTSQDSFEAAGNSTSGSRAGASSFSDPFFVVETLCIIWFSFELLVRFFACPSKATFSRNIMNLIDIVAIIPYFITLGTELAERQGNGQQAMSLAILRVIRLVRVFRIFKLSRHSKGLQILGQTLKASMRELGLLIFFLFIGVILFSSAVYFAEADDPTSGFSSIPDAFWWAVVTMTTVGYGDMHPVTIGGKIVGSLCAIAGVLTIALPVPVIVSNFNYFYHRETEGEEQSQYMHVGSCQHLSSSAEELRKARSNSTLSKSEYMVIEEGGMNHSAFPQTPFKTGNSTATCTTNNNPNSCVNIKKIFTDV
Sequence of Histamine H1 (P35367 whole entry): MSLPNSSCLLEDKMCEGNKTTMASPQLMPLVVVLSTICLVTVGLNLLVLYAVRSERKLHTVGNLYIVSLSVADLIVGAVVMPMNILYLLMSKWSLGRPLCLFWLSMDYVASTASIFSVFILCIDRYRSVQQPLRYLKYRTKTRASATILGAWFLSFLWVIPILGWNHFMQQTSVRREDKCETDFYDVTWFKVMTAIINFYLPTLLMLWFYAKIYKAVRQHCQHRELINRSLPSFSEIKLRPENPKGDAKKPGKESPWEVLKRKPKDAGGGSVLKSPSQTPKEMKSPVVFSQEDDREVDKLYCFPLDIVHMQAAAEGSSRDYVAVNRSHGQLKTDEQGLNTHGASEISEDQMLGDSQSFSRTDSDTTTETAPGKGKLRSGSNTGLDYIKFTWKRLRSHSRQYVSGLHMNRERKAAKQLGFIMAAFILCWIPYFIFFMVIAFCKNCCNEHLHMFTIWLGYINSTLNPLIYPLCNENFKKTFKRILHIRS
T2 sequence (P30542 whole entry): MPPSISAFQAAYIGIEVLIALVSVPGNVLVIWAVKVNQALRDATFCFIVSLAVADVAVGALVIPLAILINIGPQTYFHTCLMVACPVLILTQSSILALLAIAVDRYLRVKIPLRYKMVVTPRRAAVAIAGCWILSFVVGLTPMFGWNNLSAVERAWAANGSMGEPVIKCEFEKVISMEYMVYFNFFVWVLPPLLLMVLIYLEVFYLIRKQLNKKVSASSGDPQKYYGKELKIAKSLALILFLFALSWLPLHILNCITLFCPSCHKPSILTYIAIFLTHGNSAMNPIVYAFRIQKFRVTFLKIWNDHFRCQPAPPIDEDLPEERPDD
T13 sequence (P08913 whole entry): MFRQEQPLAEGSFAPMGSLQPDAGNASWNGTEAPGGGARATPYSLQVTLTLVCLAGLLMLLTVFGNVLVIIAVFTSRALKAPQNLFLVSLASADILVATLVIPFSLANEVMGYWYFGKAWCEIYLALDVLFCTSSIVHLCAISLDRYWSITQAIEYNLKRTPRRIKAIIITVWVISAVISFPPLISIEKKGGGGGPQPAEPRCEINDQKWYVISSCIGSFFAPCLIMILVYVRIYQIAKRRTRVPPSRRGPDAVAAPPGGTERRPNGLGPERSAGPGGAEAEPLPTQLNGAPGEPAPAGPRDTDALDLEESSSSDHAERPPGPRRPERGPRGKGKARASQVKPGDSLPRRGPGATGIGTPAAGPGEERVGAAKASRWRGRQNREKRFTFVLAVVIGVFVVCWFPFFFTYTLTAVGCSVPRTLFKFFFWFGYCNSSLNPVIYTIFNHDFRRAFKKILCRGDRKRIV
T6 sequence (Q12809 whole entry): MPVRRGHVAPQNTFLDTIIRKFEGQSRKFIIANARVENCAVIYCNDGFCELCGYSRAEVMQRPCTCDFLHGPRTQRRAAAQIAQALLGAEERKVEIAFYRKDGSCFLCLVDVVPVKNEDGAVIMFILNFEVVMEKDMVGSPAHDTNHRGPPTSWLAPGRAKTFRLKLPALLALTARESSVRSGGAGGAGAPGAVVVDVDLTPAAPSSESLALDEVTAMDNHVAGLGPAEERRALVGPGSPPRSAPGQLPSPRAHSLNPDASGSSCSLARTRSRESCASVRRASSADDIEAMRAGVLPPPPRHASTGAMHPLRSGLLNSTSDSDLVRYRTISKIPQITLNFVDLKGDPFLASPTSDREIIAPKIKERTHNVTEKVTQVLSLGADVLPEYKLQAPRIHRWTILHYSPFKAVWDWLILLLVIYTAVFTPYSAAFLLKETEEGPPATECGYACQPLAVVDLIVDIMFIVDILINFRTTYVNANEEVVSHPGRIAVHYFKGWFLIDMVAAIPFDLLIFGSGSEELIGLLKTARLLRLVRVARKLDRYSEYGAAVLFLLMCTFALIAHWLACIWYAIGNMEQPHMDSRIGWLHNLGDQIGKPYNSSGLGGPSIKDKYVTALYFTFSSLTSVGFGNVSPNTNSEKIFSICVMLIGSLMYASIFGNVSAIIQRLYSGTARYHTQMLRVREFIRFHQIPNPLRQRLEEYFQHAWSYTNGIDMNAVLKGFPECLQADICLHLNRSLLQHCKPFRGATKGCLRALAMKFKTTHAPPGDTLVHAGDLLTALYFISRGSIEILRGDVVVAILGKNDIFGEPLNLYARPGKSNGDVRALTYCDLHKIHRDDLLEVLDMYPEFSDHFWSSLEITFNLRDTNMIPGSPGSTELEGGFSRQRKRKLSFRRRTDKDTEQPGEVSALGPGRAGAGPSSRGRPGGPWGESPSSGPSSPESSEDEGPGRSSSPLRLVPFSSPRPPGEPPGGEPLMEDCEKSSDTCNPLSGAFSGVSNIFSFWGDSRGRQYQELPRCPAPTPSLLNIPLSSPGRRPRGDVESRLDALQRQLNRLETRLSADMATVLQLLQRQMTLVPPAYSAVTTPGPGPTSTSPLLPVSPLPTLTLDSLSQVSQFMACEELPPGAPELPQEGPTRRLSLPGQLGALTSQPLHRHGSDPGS

`Cc1nc(C)c2c(n1)sc1c(NCc3ccc(C(C)(C)O)cc3)nccc12` [22g]: the inhibition at 10 µM on Histamine H1 was -11%; on Cannabinoid CB1 it was -4%; at Adenosine A1, 6%; in [1], 7%; on hKvLQT1/minK, 4.1%; at hCav3.2, 6.7%. The inhibition at 10 µM turned out to be 2.6% on hHCN2; 10.9% at hERG; 1.3% against hKv1.5; 5.8% at hNav1.5 (Tonic); 13.9% on hCav1.2; 6.9% against hNav1.5 (Phasic). Moreover, the results for the inhibition at 10 µM against hKv1.3, on Dopamine D3 and on Adrenergic α2A were 9%, 3% and -9%, respectively.

The values above are taken from publication PMC11487561 (ACS Chemical Neuroscience, 2024).
